Results taken from article PMC10535219, “Discovery and Potential Utility of a Novel Non-Invasive Ocular Delivery Platform” (Pharmaceutics, 2023).
Where two headings read alike, the source gives them in different places.

Assays:
[1] = set-up: method as in PMID 35250585; conditions: once-daily intragastric administration; mice; cited from earlier work
[2] = Biodisposition of JV-DE1 eye drops in New Zealand rabbits (LC-MS/MS of plasma and ocular tissues); format: in vivo; conditions: rabbit; for Cmax / concentration at 0.5 h / concentration at 3 h / concentration at 6 h / concentration at 24 h: New Zealand; for Cmax: topical or ocular
Protocol: The in-life procedures and sample collections were performed at Joinn Laboratory Inc. (Suzhou, China). A single dose of 50 µL (120 µg) per eye of the 0.24% JV-DE1 eye drops was applied to both eyes of the animals at time 0 using a pipet. This dose was chosen based on the maximum amount deliverable as an eye drop. Blood samples were collected from all five study animals at 0 h pre-dosing. […] Plasma samples were collected before each euthanization.
Sample preparation and bioanalysis were performed at Medicilon Preclinical Research LLC (Shanghai, China). Solid ocular tissues were homogenized with 9- to 49-fold (1 g tissue in 9 mL to 49 mL, w/v) of cold homogenization buffer (50% methanol/H2O). Aliquots of plasma or aqueous humor, as well as the homogenized tissue samples, were mixed with 8-fold volumes of 200 ng/mL warfarin in a methanol solution. After vortexing and centrifuging, an aliquot of supernatants was transferred to a 96-well plate for LC-MS/MS analysis. JV-DE1 is a synthesized new chemical entity (NCE). The absence of the endogenous compound was verified by JeniVision with a battery of pre-clinical GLP and non-GLP studies, including analytical studies in monkey, dog, and rabbit tissues.
The liquid chromatography (LC) system comprised a Waters (Waters Corporation, Milford, CT, USA) Ultra Performance Liquid Chromatography (UPLC) equipped with an ACQUITY UPLC binary solvent manager, an ACQUITY UPLC sample manager, an ACQUTIY UPLC sample organizer, and an ACQUITY UPLC column heater HT. The mass spectrometric (MS) analysis was performed using a Triple Quad 6500+ (Applied Biosystems/MDS Sciex, Concord, ON, Canada) with an ESI ion source. The data acquisition and control system were created using Analyst 1.6.3 and 1.7.1 Software from Applied Biosystems/MDS Sciex. The LC/MS conditions for JV-DE1 are described in Supplementary Table S1a–c.

[3] = single eye drop 120 μg/eye OD, 0.5 h
[4] = single eye drop 120 μg/eye OD, 3 h
[5] = single eye drop 120 μg/eye OD, 6 h
[6] = single eye drop 120 μg/eye OD, 24 h

CC/C=C\C/C=C\C/C=C\C/C=C\C/C=C\C/C=C\CCC(=O)O [JV-MD2, cis-4,7,10,13,16,19-docosahexaenoic acid]
laser-induced CNV formation [1]: effectively inhibited laser-induced CNV formation

CC(C)Oc1ccc(Cc2ccc(NC3=NCCN3)cc2)cc1 [JV-DE1, 4,5-dihydro-N-[4-[[4-(1-methylethoxy)phenyl]methyl]phenyl]-1H-imadazol-2-amine]
Cmax ([2]; anterior sclera, 120 ug, eye drop 120 µg/eye, read-out: Cmax in anterior sclera): 1790 ng/g
concentration at 0.5 h ([2]; anterior sclera, topical, 120 µg/eye, single eye drop 120 μg/eye OD, 0.5 h, read-out: Drug in OD Tissues, Anterior sclera): 1790 ng/g
concentration at 3 h ([2]; anterior sclera, topical, 120 µg/eye, single eye drop 120 μg/eye OD, 3 h, read-out: Drug in OD Tissues, Anterior sclera): 926 ng/g
concentration at 6 h ([2]; anterior sclera, topical, 120 µg/eye, single eye drop 120 μg/eye OD, 6 h, read-out: Drug in OD Tissues, Anterior sclera): 1480 ng/g
concentration at 24 h ([2]; anterior sclera, topical, 120 µg/eye, single eye drop 120 μg/eye OD, 24 h, read-out: Drug in OD Tissues, Anterior sclera): 93.2 ng/g
Cmax ([2]; bulbar conjunctiva, 120 ug, eye drop 120 µg/eye, read-out: Cmax in bulbar conjunctiva): ~16000 ng/g
Cmax ([2]; ciliary body/iris, 120 ug, eye drop 120 µg/eye, read-out: Cmax in ciliary body/iris): 305 ng/g
concentration at 0.5 h ([2]; ciliary body/iris, topical, 120 µg/eye, single eye drop 120 μg/eye OD, 0.5 h, read-out: Drug in OD Tissues, Ciliary body/iris): 105 ng/g
concentration at 3 h ([2]; ciliary body/iris, topical, 120 µg/eye, single eye drop 120 μg/eye OD, 3 h, read-out: Drug in OD Tissues, Ciliary body/iris): 305 ng/g
concentration at 6 h ([2]; ciliary body/iris, topical, 120 µg/eye, single eye drop 120 μg/eye OD, 6 h, read-out: Drug in OD Tissues, Ciliary body/iris): 231 ng/g
concentration at 24 h ([2]; ciliary body/iris, topical, 120 µg/eye, single eye drop 120 μg/eye OD, 24 h, read-out: Drug in OD Tissues, Ciliary body/iris): 28.9 ng/g
concentration at 0.5 h ([2]; conjunctiva, other: eye drop applied to the eye, single eye drop 120 μg/eye OD, 0.5 h, read-out: Drug in OD Tissues, Conjunctiva): 16500 ng/g
concentration at 3 h ([2]; conjunctiva, other: eye drop applied to the eye, single eye drop 120 μg/eye OD, 3 h, read-out: Drug in OD Tissues, Conjunctiva): 5180 ng/g
concentration at 6 h ([2]; conjunctiva, other: eye drop applied to the eye, single eye drop 120 μg/eye OD, 6 h, read-out: Drug in OD Tissues, Conjunctiva): 566 ng/g
concentration at 24 h ([2]; conjunctiva, other: eye drop applied to the eye, single eye drop 120 μg/eye OD, 24 h, read-out: Drug in OD Tissues, Conjunctiva): 994 ng/g
Cmax ([2]; cornea, 120 ug, eye drop 120 µg/eye, read-out: Cmax in cornea): ~12000 ng/g
concentration at 0.5 h ([2]; cornea, topical, 120 µg/eye, single eye drop 120 μg/eye OD, 0.5 h, read-out: Drug in OD Tissues, Cornea): 12100 ng/g
concentration at 3 h ([2]; cornea, topical, 120 µg/eye, single eye drop 120 μg/eye OD, 3 h, read-out: Drug in OD Tissues, Cornea): 5950 ng/g
concentration at 6 h ([2]; cornea, topical, 120 µg/eye, single eye drop 120 μg/eye OD, 6 h, read-out: Drug in OD Tissues, Cornea): 5130 ng/g
concentration at 24 h ([2]; cornea, topical, 120 µg/eye, single eye drop 120 μg/eye OD, 24 h, read-out: Drug in OD Tissues, Cornea): 542 ng/g
concentration at 0.5 h ([2]; plasma, other: eye drop applied to the eye, single eye drop 120 μg/eye OD, 0.5 h, read-out: Drug in plasma): 1 ng/mL
concentration at 3 h ([2]; plasma, other: eye drop applied to the eye, single eye drop 120 μg/eye OD, 3 h, read-out: Drug in plasma): 0.3 ng/mL
concentration at 6 h ([2]; plasma, other: eye drop applied to the eye, single eye drop 120 μg/eye OD, 6 h, read-out: Drug in plasma): 0.1 ng/mL
Cmax ([2]; posterior sclera, 120 ug, eye drop 120 µg/eye, read-out: Cmax in posterior sclera): 240 ng/g
concentration at 0.5 h ([2]; posterior sclera, topical, 120 µg/eye, single eye drop 120 μg/eye OD, 0.5 h, read-out: Drug in OD Tissues, Posterior sclera): 209 ng/g
concentration at 3 h ([2]; posterior sclera, topical, 120 µg/eye, single eye drop 120 μg/eye OD, 3 h, read-out: Drug in OD Tissues, Posterior sclera): 240 ng/g
concentration at 6 h ([2]; posterior sclera, topical, 120 µg/eye, single eye drop 120 μg/eye OD, 6 h, read-out: Drug in OD Tissues, Posterior sclera): 151 ng/g
concentration at 24 h ([2]; posterior sclera, topical, 120 µg/eye, single eye drop 120 μg/eye OD, 24 h, read-out: Drug in OD Tissues, Posterior sclera): 64.5 ng/g
Cmax ([2]; retina, 120 µg per eye, eye drop administration, read-out: retinal Cmax): 297 nM
Cmax ([2]; retina, 120 ug, eye drop 120 µg/eye, read-out: Cmax in retina): 92 ng/g
concentration at 0.5 h ([2]; retina, topical, 120 µg/eye, single eye drop 120 μg/eye OD, 0.5 h, read-out: Drug in OD Tissues, Retina): 92 ng/g
concentration at 3 h ([2]; retina, topical, 120 µg/eye, single eye drop 120 μg/eye OD, 3 h, read-out: Drug in OD Tissues, Retina): 49.1 ng/g
concentration at 6 h ([2]; retina, topical, 120 µg/eye, single eye drop 120 μg/eye OD, 6 h, read-out: Drug in OD Tissues, Retina): 58.9 ng/g
concentration at 24 h ([2]; retina, topical, 120 µg/eye, single eye drop 120 μg/eye OD, 24 h, read-out: Drug in OD Tissues, Retina): 6.8 ng/g
Cmax ([2]; vitreous humor, 120 ug, eye drop 120 µg/eye, read-out: Cmax in vitreous humor): 2.6 ng/mL
concentration at 0.5 h ([2]; vitreous humor, topical, 120 µg/eye, single eye drop 120 μg/eye OD, 0.5 h, read-out: Drug in vitreous humor): 2.6 ng/mL
concentration at 3 h ([2]; vitreous humor, topical, 120 µg/eye, single eye drop 120 μg/eye OD, 3 h, read-out: Drug in vitreous humor): 1.7 ng/mL
concentration at 6 h ([2]; vitreous humor, topical, 120 µg/eye, single eye drop 120 μg/eye OD, 6 h, read-out: Drug in vitreous humor): 1.2 ng/mL
concentration at 24 h ([2]; vitreous humor, topical, 120 µg/eye, single eye drop 120 μg/eye OD, 24 h, read-out: Drug in vitreous humor): 0.4 ng/mL
maximum ocular delivery efficiency (% administered dose), anterior sclera ([2]; eye drop 120 µg/eye): 0.2982%
maximum ocular delivery efficiency (% administered dose), ciliary body/iris ([2]; eye drop 120 µg/eye): 0.0174%
maximum ocular delivery efficiency (% administered dose), conjunctiva ([2]; eye drop 120 µg/eye): 1.3929%
maximum ocular delivery efficiency (% administered dose), cornea ([2]; eye drop 120 µg/eye): 0.8622%
maximum ocular delivery efficiency (% administered dose), retina ([2]; eye drop 120 µg/eye): 0.0047%
maximum ocular delivery efficiency (% administered dose), vitreous humor ([2]; eye drop 120 µg/eye): 0.0023%
drug concentration in the plasma ([2]; eye drop 120 µg/eye, throughout 0.5, 3 and 6 h post-dose): no more than 0.001 µg/mL
% Administered Dose, Anterior sclera [2, 3]: 0.2982%
% Administered Dose, Ciliary body/iris [2, 3]: 0.0084%
% Administered Dose, Conjunctiva [2, 3]: 1.3929%
% Administered Dose, Cornea [2, 3]: 0.8622%
% Administered Dose, Posterior sclera [2, 3]: 0.0153%
% Administered Dose, Retina [2, 3]: 0.0047%
% Administered Dose, Vitreous humor [2, 3]: 0.0023%
% Administered Dose, Anterior sclera [2, 4]: 0.1068%
% Administered Dose, Ciliary body/iris [2, 4]: 0.0174%
% Administered Dose, Conjunctiva [2, 4]: 0.4477%
% Administered Dose, Cornea [2, 4]: 0.4239%
% Administered Dose, Posterior sclera [2, 4]: 0.0323%
% Administered Dose, Retina [2, 4]: 0.0036%
% Administered Dose, Vitreous humor [2, 4]: 0.0012%
% Administered Dose, Anterior sclera [2, 5]: 0.2139%
% Administered Dose, Ciliary body/iris [2, 5]: 0.0137%
% Administered Dose, Conjunctiva [2, 5]: 0.1288%
% Administered Dose, Cornea [2, 5]: 0.3709%
% Administered Dose, Posterior sclera [2, 5]: 0.0197%
% Administered Dose, Retina [2, 5]: 0.0037%
% Administered Dose, Vitreous humor [2, 5]: 0.0007%
% Administered Dose, Anterior sclera [2, 6]: 0.0127%
% Administered Dose, Ciliary body/iris [2, 6]: 0.0021%
% Administered Dose, Conjunctiva [2, 6]: 0.1467%
% Administered Dose, Cornea [2, 6]: 0.0254%
% Administered Dose, Posterior sclera [2, 6]: 0.0088%
% Administered Dose, Retina [2, 6]: 0.0004%
% Administered Dose, Vitreous humor [2, 6]: 0.0004%
Drug in plasma ([2]; single eye drop 120 μg/eye OD, 24 h, LLOQ 0.0001 µg/mL): BLQ
